Literature values as cited in patent US7378109B2, “Pharmaceutical composition for improving palatability of drugs and process for preparation thereof” (Council of Scientific and Industrial Research, priority 2004, dated 2008).

Conditions: humans, oral

bioavailability: 32-50%
SMILES: CO/N=C(\C(=O)N[C@@H]1C(=O)N2C(C(=O)OC(C)OC(C)=O)=C(COC(N)=O)CS[C@H]12)c1ccco1 (stereo partly shown) [Cefuroxime axetil]
